The values below come from US8106186B2, “Transition metal phosphine complex, method for producing same, and anticancer agent containing transition metal phospine complex” (Nippon Chemical Industrial Co., Ltd., priority 2005, dated 2012).

The test system of data set [1] is Human acute myelocytic leukemia cells HL-60. The data set is described as follows: Evaluation of anticancer property 1: MTT viable cell assay (modified Mosmann method). In kind it is cell-based. Conditions: HL-60 cells, 24 hours culture, average of assays. Here is the method:
Human acute myelocytic leukemia cells cancer cells HL-60 was used as cancer cells. The cells were cultured in Rosewell Park Memorial Institute medium (RPMI 1640) supplemented with 10% fetal bovine serum, 1% antibiotic, and an antifungal agent in an atmosphere of 5% carbon dioxide in a moist incubator at 37° C.
Cells were washed with PBS. After the number of cells was determined, a suspension (1×10^6 cells/mL) was prepared with the same medium. The suspension was seeded in a sterile 96-well microplate at a density of 50,000 cells/well.
The wells were further cultured in the incubator for 24 hours.
The number of viable cells was determined by a modified Mosmann method (T. Mosmann, J. Immunnol. Method (1983)65, 55-63). […] The wells were cultured for another 3 hours under the same conditions. Formazan crystals formed by the enzyme activity of mitochondria in the cells were dissolved in 0.04 mol/HCl/isopropyl alcohol. The absorbance of each well was measured at 595 nm with a microplate reader (Bio-Rad 550). To remove the background, the absorbance of each well was measured at 630 nm. The absorbance at 630 nm was subtracted from the actual measured value. This is determined to be the number of viable cells.

For data set [2], the system named is HCS-4 (cells derived from human tongue cancer). Nature of the data set: Evaluation of anticancer property 2: MTT assay, tongue cancer cells. In kind it is cell-based. The settings on record: HCS-4, RPMI 1640+10% FBS, assayed as in Evaluation 1; read-out: IC50, Cell derived from human tongue cancer. The method, then: (§1) The number of viable cells was determined by a modified Mosmann method (T. Mosmann, J. Immunnol. Method (1983)65, 55-63). That is, a solution of a tetrazolium salt (3,[4,5-dimethylthiazole-2-yl]-2,5-diphenyltetrazolium bromide, MTT) was added thereto. The wells were cultured for another 3 hours under the same conditions. Formazan crystals formed by the enzyme activity of mitochondria in the cells were dissolved in 0.04 mol/HCl/isopropyl alcohol. The absorbance of each well was measured at 595 nm with a microplate reader (Bio-Rad 550). To remove the background, the absorbance of each well was measured at 630 nm. The absorbance at 630 nm was subtracted from the actual measured value. This is determined to be the number of viable cells. […] For the values shown in Table 3, each of Compounds 1 to 3 was assayed three times, and the average value was shown.
(§2) Compounds (2) and (3) obtained in Examples 2 and 3 were assayed as in Evaluation 1 with HCS-4 (cells derived from human tongue cancer, medium: RPMI 1640+10% FBS), COLO205 (cells derived from human colon, medium: RPMI-1640+10% FBS), and SH-10-TC (cells derived from human gastric cancer, medium: RPMI-1640+10% FBS).
On the technique in general: Tetrazolium assays rely on reduction of a dye to a coloured formazan, in cell work by metabolically active cells.

The subject of data set [3] is COLO205 (cells derived from human colon). Nature of the data set: Evaluation of anticancer property 2: MTT assay, colon cells. Conditions: COLO205, RPMI-1640+10% FBS, assayed as in Evaluation 1; read-out: IC50, Cell derived from human colon. It is filed as cell-based. Here is the method: as §1, §2
In data set [4] the test system is SH-10-TC (cells derived from human gastric cancer). The data set is described as follows: Evaluation of anticancer property 2: MTT assay, gastric cancer cells. It is filed as cell-based. The settings on record: RPMI-1640+10% FBS, assayed as in Evaluation 1, read-out: IC50, Cell derived from human gastrict cancer. The method, then: as §1, §2
For data set [5], the system named is female Sprauge-Dawley SPF rats (CrJ:CD (SD)). Nature of the data set: Toxicity test by single oral administration to rats. In kind it is in vivo, rat. The settings on record: for LD50: rats, single oral dose in corn oil, observed 14 days, from survival rate. The source says:
After female Sprauge-Dawley SPF rats (CrJ:CD (SD)) were quarantined and acclimated for about a week, healthy 8-week-old rats were selected in groups of five rats.

The term IC50 denotes the midpoint of a concentration-inhibition curve. For “bis((R,R)-1,2-bis(tert-butyl(2-pyridyl)phosphino)ethane)gold(I) chloride [Compound (3)]”, the IC50 worked out at 3.58 µM in data set [1], 3.5 µM in data set [2], 1.5 µM in data set [3] and 0.9 µM in data set [4]. Further, the LD50 in data set [5] is recorded as 300 mg/kg or more.
The substance “bis[1,2-bis(phenyl(2-pyridyl)phosphino)ethane]gold(I) chloride [Compound (5), reference compound]” returned an IC50 in data set [1] of 3.56 µM. The “Death of rats, 100 mg/kg group” value in data set [5] (single oral dose 100 mg/kg, five rats, death at 5 days after administration) was “one rat died”. In addition, the “Death of rats, 300 mg/kg group” value in data set [5] (single oral dose 300 mg/kg, five rats, deaths by day 2) is “three rats died”. In data set [5] (single oral dose 20 and 50 mg/kg, five rats per group), the “Death of rats, 20 and 50 mg/kg groups” value is listed as “no death was observed”.
For “bis(meso-1,2-bis(tert-butyl(2-pyridyl)phosphino)ethane)gold(I) chloride [Compound (2)]”, the IC50 in data set [1] was 5.13 µM; in data set [2], 1.4 µM; in data set [3], 2.2 µM; in data set [4] it was 1.2 µM. In addition, the LD50 in data set [5] was 300 mg/kg or more.
For the substance “bis(rac-1,2-bis(tert-butyl(2-pyridyl)phosphino)ethane)gold(I) chloride [Compound (1)]”, the IC50 in data set [1] was 4.51 µM. Also, in data set [5], the LD50 is reported as 300 mg/kg or more.
